Measured values reported in US7037644B1, “Means and methods for monitoring non-nucleoside reverse transcriptase inhibitor antiretroviral therapy and guiding therapeutic decisions in the treatment of HIV/AIDS” (ViroLogic, Inc., priority 1998, dated 2006).

Key:
[1] = system: individual virus clones of patient 302: (K103N, P225H) compared with (K103N, I135M, R211K); experiment: Phenotypic susceptibility assay (patient virus clones); type: cell-based, HIV; conditions: FIG. 8G
Description: The resistance test vectors containing a functional luciferase gene cassette were constructed and host cells were transfected with the resistance test vector DNA. The resistant test vectors contained patient-derived reverse transcriptase and protease sequences that were either susceptible or resistant to the antiretroviral agents, such as nucleoside reverse transcriptase inhibitors, non-nucleoside reverse transcriptase inhibitors and protease inhibitors. The resistance test vector viral particles produced by transfecting the resistance test vector DNA into host cells, either in the presence or absence of protease inhibitors, were used to infect target host cells grown either in the absence of NRTI or NNRTI or in the presence of increasing concentrations of the drug. The amount of luciferase activity produced in infected target host cells in the presence of drug was compared to the amount of luciferase produced in infected target host cells in the absence of drug. […] The IC50 values were determined by plotting percent drug inhibition vs. log10 drug concentration.
Host cells were seeded in 10-cm-diameter dishes and were transfected several days after plating with resistance test vector plasmid DNA and the envelope expression vector. […] HIV capsid protein (p24) levels in the harvested cell culture media were determined by an EIA method as described by the manufacturer (SIAC; Frederick, Md.). […]

[2] = system: HIV reverse transcriptase with mutations at codon 230 (leucine) and 181 (cysteine); experiment: Phenotypic susceptibility assay; type: cell-based; conditions: mutations at codons 230 and 181
Description: In another specific embodiment, the invention provides for a method of evaluating the effectiveness of NNRTI antiretroviral therapy of a patient comprising (i) collecting a biological sample from an HIV-infected patient; and (ii) determining whether the biological sample comprises nucleic acid encoding HIV RT having a mutation at codon(s) 230 and/or 181. […] In another specific embodiment, the invention provides for a method of evaluating the effectiveness of NNRTI antiretroviral therapy of a patient comprising (i) collecting a biological sample from an HIV-infected patient; and (ii) determining whether the biological sample comprises nucleic acid encoding HIV RT having a mutation at codon 181. […] In another specific embodiment, the invention provides for a method of evaluating the effectiveness of NNRTI antiretroviral therapy of a patient comprising (i) collecting a biological sample from an HIV-infected patient; and (ii) determining whether the biological sample comprises nucleic acid encoding HIV RT having a mutation at codon 188. […]

Compound | effect of P225H on resistance associated with K103N [1] | change in susceptibility [2]
CC(C)Nc1cccnc1N1CCN(C(=O)c2cc3cc(NS(C)(=O)=O)ccc3[nH]2)CC1 [delavirdine] | reduces the amount delavirdine resistance | significant decrease
Cc1ccnc2c1NC(=O)c1cccnc1N2C1CC1 [nevirapine] | does not alter | significant decrease
